This is an account of results in patent US20050005311A1, “High throughput screening for cancer genes” (priority 2003, published 2005).

The test system of the data set is l(2)gl primary tumor. It counts as in vivo, Drosophila melanogaster. As to the method: Adult hosts injected with l(2)gl/l(2)gl larval tissue were orally administered drugs for 21 days after injection. Hosts were treated with 0 or 0.56 μg/ml of LY294002 (reduction of tumor size to 7% of untreated) and 0 or […] PD98059 (no effect).
Brain lobes from armadillo-lacZ marked larvae; were dissected and cut into halves. Each fragment was injected into the abdomen of a βgal^ml (a mutant that lacks endogenous […] expression) adult female using a 33 gauge needle, where it was cultured for 21 days at room temperature. Hosts that had received transplants were opened along the ventral midline and fixed in 3.7% formaldehyde in phosphate buffered saline (PBS). β-galactosidase in the donor tissue was detected by staining overnight at 37° C. in 0.02% X-gal in 10 mM Na pyrophosphate, 0.15 M NaCl, […], 5 mM ferricyanide, and 5 mM K ferrocyanide (Specialty Media). Secondary tumors were defined as β-galactosidase-marked cells distinct from the :implanted tumor, which was defined as the primary tumor.
The levels of Mothers against dpp (Mad), P13K, ERK, Akt, and cleaved caspase 3 were studied in brain extracts from l(2)gl/l(2)gl, l(2)gl/l(2)gl; sema-5c/sema-5c, and wild-type larvae. P13K was reduced in l(2)gl/l(2)gl;sema-5c/sema-5c compared to l(2)gl/l(2)gl. To further study the role of P13K in l(2)gl tumors, the P13K inhibitor, LY294002, was orally administered to Drosophila adults injected with l(2)gl/l(2)gl tissue.
Adult βgal^nl hosts transplanted with armadillo-lacZ marked l(2)gl brain fragments were treated with 0; 0.556; 5.56; and 55.6 μg/ml of the PI-3 K inhibitor, LY294002 (Sigma), by adding drug to fly media. Flies were cultured for 21 days on drug-containing food and stained for the presence of β-galactosidase. Primary tumor size was determined by counting the cells dissociated from tumors. See, e.g., FIG. 5.

The structures appear in SMILES notation.

With `O=c1cc(N2CCOCC2)oc2c(-c3ccccc3)cccc12` [LY294002], where the note is “adult hosts injected with l(2)gl/l(2)gl larval tissue, oral, 0.56 μg/ml, 21 days after injection (FIG. 5)”, the “primary tumor size (% of untreated)” value is 7 % of untreated. Moreover, the “adverse effects to the hosts” value (in vivo, po) is “without adverse effects”. The primary tumor size (orally administered to Drosophila adults injected with l(2)gl/l(2)gl tissue, dose not given) is recorded as 7 % of untreated hosts.

Regarding `COc1cccc(-c2cc(=O)c3ccccc3o2)c1N` [PD98059], the “effect on l(2)gl primary tumor growth” value (adult hosts injected with l(2)gl/l(2)gl larval tissue, oral, 0.56 μ/ml, 21 days after injection (FIG. 5)) is recorded as “no effect”.
